Data reported in patent US6881584B1, “Infrared thermography” (SmithKline Beecham Corporation, priority 1998, dated 2005).
Blank lines part the entries; values can stand above or below the compound they belong to.

Key:
thoracic area = experiment: Infrared thermography of thoracic area of nude mice treated with inhalant; assay type: in vivo; settings: vs vehicle
Method: (§1) Male AKR/J, C57BL/6J, and SWR/J mice were purchased from 4-8 weeks of age from Jackson Laboratories (Bar Harbor, Me.). Mice were fed high and low fats diets containing high sucrose as defined by Surwit et al., (Metabolism 44(5):645-651 (1995)). After 14 weeks on these diets, the intrascapular fur was shaved, the animals were dosed (intraperitineal) with 1 mg/kg of BRL37344, and the animals were anesthetized with isofluorane. Nude mice (BALB/C) were 6-8 weeks old and were dosed with inhalant two times before thermal profiling. The Lewis rat strain (200-250 g) were used for both the MED and inflammation experiments. Infrared thermographic images and temperature calculations were recorded using an Agema Thermovision 900 Infrared System.
Furthermore, the bioavailability and bioactivity of inhalants in animals and man is often difficult to measure and quantitate. Assays available for measuring bioavailabilty of inhalants involve measuring the uptake of radiolabeled inhalant in selected tissues (eg. lung). Infrared thermography provides a non-invasive method for measuring the bioavailibilty/bioactivity of inhalant compounds. Thus, infrared thermography was used to measure the thermal activity induced by an inhalant in the thoracic area of nude mice.

C3H10T1/2 cells = experiment: Infrared thermography of heat production in differentiating C3H10T1/2 cells (PPARγ agonists); assay type: cell-based; settings: in the presence of insulin and 9-cis retinoic acid (FIG. 7), read-out: EC50(μM), thermogenesis and lipogenesis assays
Method: (§2) Human subcutaneous adipocytes were purchased from Zen-Bio, Inc. (Research Triangle Park, N.C.). C3H10T1/2 clone 8 fibroblasts were differentiated into adipocytes as previously described (Lenhard et al, Biochem. Pharmacol. 54:801-808 (1997), Paulik and Lenhard, Cell Tissue Res. 290:79-87 (1997)). After 7 days in culture, triglyceride accumulation was determined by adding lipoprotein lipase and GPO-Trinder reagent (assay kit 337-B, Sigma Diagnostics, St. Louis, Mo.) to the cells (50 μl/cm^2) and incubating the lysates at 37° C. for 2 hours. The optical density was measured using a spectrophotometer set at a wavelength of 540 nm. Lipolysis was measured as previously described (Lenhard et al, Biochem. Pharmacol. 54:801-808 (1997)).
Heat generation was measured using a Stirling cooled Agema Thermovision 900 Infrared System AB (Marietta, Ga.) equipped with a SW Scanner and 40°×25° lens which detects a 2-5.4 micron spectral response. […] The focal distance was 6 cm. Images were captured using a recurs function set at 16 or an averaging function set at 32. The data was analyzed using OS-9 advanced systems and ERIKA 2.00 software according to the manufacturer's specifications (FLIR Infrared Systems AB, Danderyd, Sweden). […] Various color scales in the visible wavelength were used to depict the temperature fluctuations of the recorded images. […]

[1] = tested on: intrascapular brown adipose tissue (IBAT); experiment: IBAT thermogenesis in ob/ob mice treated with PPARγ agonist; assay type: in vivo; settings: two weeks treatment, compared to control animals
Method: (§3) Heat generation was measured using a Stirling cooled Agema Thermovision 900 Infrared System AB (Marietta, Ga.) equipped with a SW Scanner and 40°×25° lens which detects a 2-5.4 micron spectral response. […] The focal distance was 6 cm. Images were captured using a recurs function set at 16 or an averaging function set at 32. The data was analyzed using OS-9 advanced systems and ERIKA 2.00 software according to the manufacturer's specifications (FLIR Infrared Systems AB, Danderyd, Sweden). Thermography of adipocytes was performed by maintaining the ambient temperature of the cultured cells at 37±0.02° C. using a Queue Systems Inc. (Parkersburg, W.Va.) incubator, model QWJ500SABA. Spectral analysis of yeast was performed at 30±0.02° C. using the same incubator system. After treating the cells with experimental agents (e.g., rotenone etc.), the temperature was equilibrated for 10 minutes in the incubator before measuring real time thermogenesis for all microtiter plate applications. Various color scales in the visible wavelength were used to depict the temperature fluctuations of the recorded images. Although temperature scales are constant, the color scale images are variable and can be adjusted with level and span controls.

C3H10T1/2 adipocytes [2] = experiment: Infrared thermography of thermogenesis in cultured adipocytes (β-AR-agonists); assay type: cell-based; settings: for EC50: Mus musculus
Method: as §2, §3
The β3-AR-agonists are candidate therapeutic agents for the treatment of diabetes and obesity. Although, the mechanism of action for these agents is thought to involve increased metabolic rate (Scarpace, Ann. N.Y. Acad. Sci. 813:111-116 (1997)), it has yet to be shown that β-AR-agonists increase heat output by adipocytes. Therefore, it was determined whether infrared imaging could be used to monitor the effects of β-AR-agonists on thermogenesis in cultured adipocytes.
(§4) As a control, the effects of β-AR-agonists on lipolysis was also measured. […] In general, this expands to measuring thermogenic activity of both catabolic and anabolic mediated-effects of potential drug candidates.

C3H10T1/2 adipocytes [3] = experiment: Lipolysis in adipocytes treated with β-AR-agonists; assay type: cell-based; settings: Mus musculus, C3H 10T1/2, read-out: EC50 (nM) Lipolysis
Method: as §2, §4

[4] = target: T1, beta 3 adrenergic receptor (β3AR) (Homo sapiens, UniProt P13945); experiment: Infrared thermography of CHO cells overexpressing the β3AR receptor; assay type: cell-based
T1 construct: expressed in transfected cells; host or cells: Chinese Hamster Ovary (CHO) cells
Method: as §3

genitalia = experiment: Thermogenesis in rat genitalia (male erectile dysfunction); assay type: in vivo; settings: rats, 2 hours after PO dosing, 3.0 or 0.3 mg/kg
Method: as §1
Male erectile dysfunction (MED) is treatable with drugs that increase blood flow to the genitalia. Increased local thermogenesis is associated with increased local blood flow. One drug that acts in this manner and treats MED is Pinacidil. […] Thus, infrared thermography provides a quantitative and non-invasive method for identifying and evaluating drug candidates for the MED indication as well as identifying candidates that can cause erection as a side effect.

yeast = assay type: cell-based; settings: dose response, relative to untreated cells
UCP2 = experiment: Infrared thermography of yeast expressing UCP2; assay type: cell-based; settings: galactose-induced UCP2
Method: Human skeletal muscle cDNA (#7175-1) was purchased from Clontech (Palo Alto, Calif.). UCP2 specific-sequences were PCR amplified from the sample using oligonucleotide primers that matched the 5′ and 3′ ends of a published sequence (GenBank U82819). Vent polymerase was used (New England Biolabs, Beverly, Mass.) in a standard reaction mixture with 2 mM MgSO4 and 5% DMSO. The cycle parameters were 94° C. for 1 min., 55° C. for 1 min., and 72° C. for 1 min., repeated 29 times. The sample was passed over an S-400 spin column (Pharmacia, Piscataway, N.J.) prior to ligation in a vector for transformation of E. coli. The authenticity of the clone was confirmed by DNA sequence analysis. For the experiments in yeast, the UCP2 coding sequence was amplified by PCR using primers with the sequence […] AAGGCCA (SEQ ID NO:1) (sense) and […] (SEQ ID NO:2) (antisense) followed by a second PCR using primers with the sequence […] (SEQ ID NO:3) (sense) and […] (SEQ ID NO:4) (antisense). The PCR product was cloned into pYX233 (R&D Systems) by homologous recombination in yeast strain W303 (a/a homozygous for ade2-1, his3-1, 15 leu2-3, 112, trp1-1, ura3-1). Yeast transformants were selected on BSM-trp agar (Bio 101, Vista, Calif.). The correct UCP2 sequence was verified by sequencing plasmids back-extracted from yeast to E. coli. […]

human adipocytes = experiment: Infrared thermography of human adipocytes in 96-well plates; assay type: cell-based; settings: dose response, relative to untreated cells
hair-loss = experiment: Chemotherapy-induced hair-loss by infrared thermography in newborn pups treated in utero; assay type: in vivo, rat; settings: 6 mg/kg
Excerpt: Hair loss can result from undesirable side-effects of various therapies (e.g., radiation treatment of cancer patients, surgery etc.) and can occur naturally with age, whereas surgical or pharmacological intervention can restore hair growth. Since hair provides insulation against heat loss and aids in the maintenance of a constant body temperature, it was of interest to determine if infrared thermography can be used to measure hair loss. The lack of progress in the treatment and prevention of chemotherapy-induced alopecia is in part due to the lack of a reproducible animal model as well as a quantitative method to measure hair-loss. To determine if infrared imaging can be used to quantitatively measure chemotherapy induced hair-loss, newborn rat pups that were treated in utero with the known cancer agent, etoposide, were thermally profiled for hair-loss.

HUVEC cells = settings: 10 minutes
Method: as §3

tissue vascularization = settings: nude mice, vs control injection
Method: Nude mice were injected with either VEGF peptide or a control followed by themographic imaging of both injection sites.

liver = assay type: in vivo; settings: ob/ob mice, 0.1-1 mg/kg i.p., 90 minutes, dose-dependent
Method: FIG. 29. Liver thermogenesis in ob/ob mice 90 minutes after treatment with lipopolysaccharide (LPS) detected by IR thermography. Male ob/ob mice were housed and maintained as described in FIG. 1. Mice were dosed at 0.0, 0.1, 0.3, or 1 mg/kg LPS in water vehicle (0.5 mL i.p.; n=10 per dose) and anesthetized using isoflurane as described above 90 minutes after treatment. The abdomens of the anesthetized mice were surgically opened to expose the liver and Bioclusive adhesive was placed over the entire exposed area. IR images of the liver region were acquired and analyzed as detailed in FIG. 28. […] Quantification of the IR signal in the liver region is shown in the bottom panel. Data are means±SEM for n=10 animals per group. Asterisks (*) denote statistical differences from control (p<0.05, ANOVA with Student-Newman-Keuls post hoc tests).
Use of IR transparent adhesive to image liver thermogenesis in vivo. […] Indeed, temperature measurements obtained by IR thermography correlated well with liver toxicity measured as AST release (r=0.99). In addition, temperature changes measured using IR thermography correlated with alanine aminotransferase (ALT) release, another marker of liver injury (r=0.76, data not shown).

T1 sequence (P13945 whole entry): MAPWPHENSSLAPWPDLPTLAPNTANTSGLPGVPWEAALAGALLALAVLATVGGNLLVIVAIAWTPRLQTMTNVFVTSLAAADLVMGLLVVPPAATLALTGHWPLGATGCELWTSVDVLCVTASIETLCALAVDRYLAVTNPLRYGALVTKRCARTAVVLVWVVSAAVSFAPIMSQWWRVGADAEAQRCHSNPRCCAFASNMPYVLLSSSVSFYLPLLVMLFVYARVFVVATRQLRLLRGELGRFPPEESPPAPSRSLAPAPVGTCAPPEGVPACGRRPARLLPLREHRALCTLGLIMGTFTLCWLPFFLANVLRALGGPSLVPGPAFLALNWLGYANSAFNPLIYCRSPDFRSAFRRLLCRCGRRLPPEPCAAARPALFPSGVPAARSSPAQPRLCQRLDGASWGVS

Compound: CC(C)(C)NCC(O)c1ccc(O)c(CO)c1 (centres unmarked) [Albuterol]
torso area temperature (thoracic area): torso temperature increases after 2.5 minutes

EC50 (C3H10T1/2 cells): 0.052 µM
Compound: CN(CCOc1ccc(C[C@H](Nc2ccccc2C(=O)c2ccccc2)C(=O)O)cc1)c1ccccn1 [GW1929]
IBAT thermogenesis [1]: reduction in IBAT thermogenesis

Compound: CC(C)NCC(O)c1ccc(O)c(O)c1 (centres unmarked) [Isoproterenol]
stimulation of thermogenesis (C3H10T1/2 adipocytes [2]; C3H10T1/2 adipocytes): stimulated
EC50 (C3H10T1/2 adipocytes [2]; C3H 10T1/2, adipocytes, infrared thermography, dose response, read-out: EC50 (nM) Thermogenesis): 28 nM
EC50 (C3H10T1/2 adipocytes [3]): 27.1 nM
thermogenic response of CHO cells [4]: responsive in a dose-dependent manner

Compound: CC(N/C(=N\C#N)Nc1ccncc1)C(C)(C)C (centres unmarked) [Pinacidil]
thermogenesis in the genitalia (genitalia): increase in thermogenesis

Compound: C=C(C)[C@H]1Cc2c(ccc3c2O[C@@H]2COc4cc(OC)c(OC)cc4[C@@H]2C3=O)O1 [Rotenone]
thermogenesis in yeast (yeast): inhibited thermogenesis
EC50 (C3H10T1/2 adipocytes [2]; C3H 10T1/2, read-out: EC50 (nM) Thermogenesis): 8.5 nM
thermogenesis of cells treated with β-AR-agonists (C3H10T1/2 adipocytes [2]; cells treated with 50 nM of the various β-AR-agonists): inhibited thermogenesis
UCP2-mediated thermogenesis (UCP2): inhibited
thermogenesis in human adipocytes (human adipocytes): inhibited thermogenesis

Compound: COc1cc([C@@H]2c3cc4c(cc3[C@@H](O[C@@H]3O[C@@H]5CO[C@@H](C)O[C@H]5[C@H](O)[C@H]3O)[C@H]3COC(=O)[C@H]23)OCO4)cc(OC)c1O [etoposide]
thermal activity as a result of hair-loss (hair-loss): increased thermal activity in both the fronts and backs as a result of hair-loss

Compound: VEGF
thermogenesis in HUVEC cells (HUVEC cells): induced thermogenesis
thermogenesis in local area of injection (tissue vascularization): enhanced thermogenesis

Compound: lipopolysaccharide [LPS]
liver thermogenesis (liver): thermogenesis is increased
